Data on 25 compounds can be found in patent US8524703B2, “Bridgehead amine ring-fused indoles and indolines” (AbbVie Inc., priority 2009, dated 2013).

A word on the EC50: it is the midpoint of the concentration-response curve.

This test concerns SK-N-SH human neuroblastoma cells. As to the kind of experiment: Serum Deprivation/JC-1 Mitochondrial Membrane Potential (MMP) Assay. Format: cell-based. Particulars: for Emax: read-out: JC-1 max %; for EC50: serum deprivation ~18 hours, JC-1 ratio normalized to peak value for 10 μM dimebolin. The procedure:
Tissue Culture: SK-N-SH human neuroblastoma cells obtained from American Type Culture Collection (Rockville, Md.) were maintained in the log phase of growth in Minimal Essential Media (MEM), 10% heat inactivated fetal calf serum and 100 units/mL antibiotic-antimycotic (AA). Cells were cultured and maintained in a humidified incubator at 37° C. under 5% CO2 and 95% air. Cells were trypsinized (0.25%) and subcultured every 3 days and used from 15-18 passages. All cell culture supplies were obtained from Invitrogen (Carlsbad, Calif.).
Serum Deprivation/JC-1 Mitochondrial Membrane Potential (MMP) Assay.
SK-N-SH cells were plated 2-3 days in advance at a concentration of 50,000 cells/well onto collagen coated black-walled 96 well plates (Becton-Dickinson, Bedford, Mass.) in a total volume of 200 μL. On day of experimental treatment, the media containing serum was aspirated from each well and rinsed once with MEM/1% AA without serum. The cells then were incubated overnight in 100 μL of MEM/1% AA (no serum) with and without dimebolin or novel chemical entities overnight for ˜18 hours. The following day, JC-1 dye (5,5′,6,6′-tetrachloro-1,1′,3,3′-tetraethylbenzimidazolcarbocyanide) was diluted 1:10 into MEM media according to the JC-1 Mitochondrial Membrane Potential Assay Kit: (Cayman Chemical Company, Ann Arbor, Mich.) and then 10 μL of the JC-1 dye solution was added to each well. The plates were centrifuged for 5 minutes at 400×g at room temperature followed by 40 minute incubation at 37° C. The plates were washed twice with 200 μL of provided Assay Buffer followed an addition of 100 μL of Assay Buffer to each well. The plates were read with an excitation and emission of 560 nm and 595 nM for red fluorescence and with an excitation and emission of […] and 535 nM for green fluorescence to determine the final JC-1 value taking the red to green fluorescence ratio. This assay is based on change in mitochondrial membrane potential (MMP) using this lipophilic cationic dye, JC-1, by monitoring the changes in the ratio of red to green fluorescence as the MMP depolarizes. This change in MMP reflects the health of the cell with healthy, viable cells have a high JC-1 ratio and high MMP whereas apoptotic, unhealthy cells have a low JC-1 ratio or low MMP.
For the ability of compounds to reverse the stress due to serum deprivation and increase the JC-1 ratio, the percent maximal intensity in JC-1 ratio was normalized to that induced by the peak value for 10 μM dimebolin and plotted against the compound concentration to calculate EC50 values and to control for plate-to-plate variability. Concentration-response data were analyzed using GraphPad Prism (San Diego, Calif.); the EC50 values were derived from a single curve fit to the mean data of n=2-3, in duplicates.
All compounds were dissolved in dimethyl sulfoxide at 10 mM stock solutions and tested at a concentration that the dimethyl sulfoxide levels never exceeded 1%.

Setting [1] is: Homo sapiens, SK-N-SH, percent maximal JC-1 ratio normalized to peak value for 10 μM dimebolin.

For `C(=C\c1cccc2c3c([nH]c12)C1CCN(CC1)C3)/c1ccncc1` [Example 11, 7-[(E)-2-pyridin-4-ylvinyl]-3,4,5,6-tetrahydro-1H-2,5-ethanoazepino[4,3-b]indole], the Emax under setting [1] stood at 171%. Further, the half-maximal effective concentration (EC50) (Homo sapiens, SK-N-SH) was found to be 6.73 µM.
For `Cc1ccc(C#Cc2cc(F)cc3c4c([nH]c23)C2CCN(CC2)C4)cn1` [Example 24, 9-fluoro-7-[(6-methylpyridin-3-yl)ethynyl]-3,4,5,6-tetrahydro-1H-2,5-ethanoazepino[4,3-b]indole], the Emax under setting [1] stood at 156%. Moreover, for the setting “Homo sapiens, SK-N-SH”, the EC50 was 5.38 µM.
For `Cc1ccc(C#Cc2ccc3c4c([nH]c3c2)C2CCN(CC2)C4)cn1` [Example 22, 8-[(6-methylpyridin-3-yl)ethynyl]-3,4,5,6-tetrahydro-1H-2,5-ethanoazepino[4,3-b]indole], under setting [1], the Emax came out at 185%. In addition, the EC50 (Homo sapiens, SK-N-SH) is 8.66 µM.
In the same order, the values of `Cc1ccc(/C=C/c2cccc3c4c([nH]c23)C2CCCN(C4)C2)cn1` (centres unmarked) [Example 35, 8-[(E)-2-(6-methylpyridin-3-yl)vinyl]-1,3,4,5,6,7-hexahydro-2,6-methanoazocino[4,3-b]indole] are 213% and 7.28 µM.
On the same counts, the results for `c1cncc(-c2cccc3c4c([nH]c23)C2CCN(CC2)C4)c1` [Example 39, 7-(pyridin-3-yl)-3,4,5,6-tetrahydro-1H-2,5-ethanoazepino[4,3-b]indole] are 113% and 10.3 µM.
`Cc1ccc(CCc2ccc3[nH]c4c(c3c2)CN2CCC4CC2)cn1` [Example 9, 9-[2-(6-methylpyridin-3-yl)ethyl]-3,4,5,6-tetrahydro-1H-2,5-ethanoazepino[4,3-b]indole]: the Emax under setting [1] was 110%. The EC50 (Homo sapiens, SK-N-SH) came out at 3.94 µM.
In the same order, the values of `Cc1ccc(/C=C/c2cc(F)cc3c4c([nH]c23)C2CCN(CC2)C4)cn1` [Example 25, 9-fluoro-7-[(E)-2-(6-methylpyridin-3-yl)vinyl]-3,4,5,6-tetrahydro-1H-2,5-ethanoazepino[4,3-b]indole] are 127% and 3.42 µM.
In the same order, the values of `C(=C\c1cccc2c3c([nH]c12)C1CCN(CC1)C3)/c1cncnc1` (single isomer, unassigned) [Example 29, 7-[(E)-2-(pyrimidin-5-yl)vinyl]-3,4,5,6-tetrahydro-1H-2,5-ethanoazepino[4,3-b]indole] are 54% and 5.33 µM.
In the same order, the values of `C(#Cc1cccc2c3c([nH]c12)C1CCN(CC1)C3)c1cccnc1` [Example 13, 7-(pyridin-3-ylethynyl)-3,4,5,6-tetrahydro-1H-2,5-ethanoazepino[4,3-b]indole] are 142% and 5.17 µM.
For `c1cc(-c2ccncc2)c2[nH]c3c(c2c1)CN1CCC3CC1` [Example 40, 7-(pyridin-4-yl)-3,4,5,6-tetrahydro-1H-2,5-ethanoazepino[4,3-b]indole], the Emax under setting [1] was determined as 92%. For the setting “Homo sapiens, SK-N-SH”, the EC50 stood at 8.99 µM.
On the same counts, the results for `Cc1ccc(-c2cccc3c4c([nH]c23)C2CCN(CC2)C4)cn1` [Example 37, 7-(6-methylpyridin-3-yl)-3,4,5,6-tetrahydro-1H-2,5-ethanoazepino[4,3-b]indole] are 179% and 8.66 µM.
In the same order, the values of `Fc1cccc(CCc2cccc3c4c([nH]c23)C2CCN(CC2)C4)c1` [Example 16, 7-[2-(3-fluorophenyl)ethyl]-3,4,5,6-tetrahydro-1H-2,5-ethanoazepino[4,3-b]indole] are 49% and > 30 µM.
In the same order, the values of `C(=C\c1cccc2c3c([nH]c12)C1CCN(CC1)C3)/c1ccccn1` [Example 12, 7-[(E)-2-pyridin-2-ylvinyl]-3,4,5,6-tetrahydro-1H-2,5-ethanoazepino[4,3-b]indole] are 192% and 3.56 µM.
Take `Cc1ccc(CCc2cccc3c4c([nH]c23)CN2CCC4CC2)cn1` [Example 33, 9-[2-(6-methylpyridin-3-yl)ethyl]-3,4,5,10-tetrahydro-1H-2,5-ethanoazepino[3,4-b]indole]: the Emax under setting [1] turned out to be 197%. The EC50 (Homo sapiens, SK-N-SH) worked out at 6.01 µM.
Regarding `Cc1ccc(CCc2cccc3c4c([nH]c23)C2CCN(CC2)C4)cn1` [Example 2, 7-[2-(6-methylpyridin-3-yl)ethyl]-3,4,5,6-tetrahydro-1H-2,5-ethanoazepino[4,3-b]indole], under setting [1], the Emax was 170%. The EC50 (Homo sapiens, SK-N-SH) came to 5.22 µM.
`Cc1ccc(/C=C/c2cccc3c2NC2C4CCN(CC4)CC32)cn1` (stereo not drawn) [Example 36, (cis)-7-[(E)-2-(6-methylpyridin-3-yl)vinyl]-3,4,5,5a,6,10b-hexahydro-1H-2,5-ethanoazepino[4,3-b]indole]: the EC50 is 6.89 µM. In addition, the JC-1 max % (percent maximal JC-1 ratio normalized to peak value for 10 μM dimebolin) came out at 196%.
As to `Cc1ccc(/C=C\c2cccc3c4c([nH]c23)C2CCN(CC2)C4)cn1` [Example 31, 7-[(Z)-2-(6-methylpyridin-3-yl)vinyl]-3,4,5,6-tetrahydro-1H-2,5-ethanoazepino[4,3-b]indole], the Emax under setting [1] came out at 120%. For the same compound, the EC50 (Homo sapiens, SK-N-SH) was determined as 7.75 µM.
On the same counts, the results for `C(=C\c1cccc2c3c([nH]c12)C1CCN(CC1)C3)/CCCc1ccccc1` [Example 5, 7-[(1E)-5-phenylpent-1-enyl]-3,4,5,6-tetrahydro-1H-2,5-ethanoazepino[4,3-b]indole] are 58% and 5.27 µM.
`c1ccc(CCCCCc2cccc3c4c([nH]c23)C2CCN(CC2)C4)cc1` [Example 7, 7-(5-phenylpentyl)-3,4,5,6-tetrahydro-1H-2,5-ethanoazepino[4,3-b]indole]: under setting [1], the Emax turned out to be 62%. Further, under “Homo sapiens, SK-N-SH”, the EC50 turned out to be 1.43 µM.
Take `C(=C\c1cccc2c3c([nH]c12)C1CCN(CC1)C3)/c1cccnc1` [Example 34, 7-[(E)-2-pyridin-3-ylvinyl]-3,4,5,6-tetrahydro-1H-2,5-ethanoazepino[4,3-b]indole]: the Emax under setting [1] came to 109%. Besides, the EC50 (Homo sapiens, SK-N-SH) came to 6.3 µM.
Regarding `Fc1ccc(/C=C/c2cccc3c4c([nH]c23)C2CCN(CC2)C4)cc1` [Example 10, 7-[(E)-2-(4-fluorophenyl)vinyl]-3,4,5,6-tetrahydro-1H-2,5-ethanoazepino[4,3-b]indole], the Emax under setting [1] came to 84%. In addition, the concentration giving a half-maximal response (EC50) (Homo sapiens, SK-N-SH) stood at 4.74 µM.
For the compound `Cc1ccc(/C=C/c2cccc3[nH]c4c(c23)CN2CCC4CC2)cn1` [Example 18, 10-[(E)-2-(6-methylpyridin-3-yl)vinyl]-3,4,5,6-tetrahydro-1H-2,5-ethanoazepino[4,3-b]indole], the Emax under setting [1] was found to be 173%. The EC50 (Homo sapiens, SK-N-SH) came to 3.1 µM.
In the same order, the values of `c1ccc(COc2cccc3c4c([nH]c23)C2CCN(CC2)C4)cc1` [Example 26, 7-(benzyloxy)-3,4,5,6-tetrahydro-1H-2,5-ethanoazepino[4,3-b]indole] are 494% and 9.81 µM.
Consider `Clc1ccc(/C=C/c2cccc3c4c([nH]c23)C2CCN(CC2)C4)cc1` [Example 4, 7-[(E)-2-(4-chlorophenyl)vinyl]-3,4,5,6-tetrahydro-1H-2,5-ethanoazepino[4,3-b]indole], for which, under setting [1], the Emax is 123%. Further, under “Homo sapiens, SK-N-SH”, the EC50 came to 4.09 µM.
`Cc1ccc(/C=C/c2cccc3c4c([nH]c23)CN2CCC4CC2)cn1` [Example 32, 9-[(E)-2-(6-methylpyridin-3-yl)vinyl]-3,4,5,10-tetrahydro-1H-2,5-ethanoazepino[3,4-b]indole]: under setting [1], the Emax was determined as 199%. Also, the EC50 (Homo sapiens, SK-N-SH) is 3.64 µM.
